Experimental findings from DBAASP are described below.

Values after ≈ are worked out from the molar mass of the structure shown. Values joined by “and” are separate entries in the source; they are usually repeats but may differ in a detail not shown here. Equal entries are not always repeated.

Experiment in all cases: ≥ marks a high value that may be exact or a test limit, other limits are often not marked, values filed in µg/mL are converted to µM
In assay [1] the test system is Shigella dysenteriae ATCC 51302.
For assay [2], the system named is Escherichia coli ATCC 25922.
The test system of assay [3] is Salmonella typhimurium ATCC 50013.
Assay [4] relates to Pseudomonas aeruginosa ATCC 27853.
Assay [5] relates to Streptococcus pneumoniae ATCC 49619.
Assay [6] concerns Staphylococcus aureus ATCC 25923.
Assay [7] deals with Bacillus subtilis ATCC 9372.
The test system of assay [8] is Klebsiella pneumoniae ATCC BAA-2814.
The test system of assay [9] is Staphylococcus aureus ATCC BAA-2312.
Assay [10] deals with Escherichia coli ATCC 35218.
The test system of assay [11] is Salmonella enterica subsp. enterica serovar Typhimurium ATCC 14028.
Assay [12] relates to Klebsiella pneumoniae ATCC 49472.
The test system of assay [13] is Staphylococcus aureus ATCC 12600.
Assay [14] concerns Enterococcus faecalis ATCC 51299.
For assay [15], the system named is Acinetobacter baumannii BCRC 14B0100.
Assay [16] concerns Pseudomonas aeruginosa 891.
The test system of assay [17] is Acinetobacter baumannii AB7MG.
In assay [18] the test system is Proteus mirabilis W03VA1144.
Assay [19] relates to Pseudomonas aeruginosa VA463/98.
The test system of assay [20] is Pseudomonas aeruginosa 885149.
Assay [21] deals with Citrobacter freundii W99FI00007.
The subject of assay [22] is Escherichia coli.
In assay [23] the test system is Elizabethkingia meningoseptica CCUG 4310.
For assay [24], the system named is Staphylococcus aureus ATCC 29213.
The subject of assay [25] is Klebsiella pneumoniae.
In assay [26] the test system is Staphylococcus aureus MIU-68A.
The subject of assay [27] is Klebsiella aerogenes W03BG0067.
For assay [28], the system named is Morganella morganii W03VA1342.
In assay [29] the test system is Providencia stuartii W03FI0001.
The subject of assay [30] is Enterobacter cloacae W03AN0041.
The subject of assay [31] is Klebsiella oxytoca W99FI00049.
Assay [32] has as its system Proteus mirabilis W99FI0089.
Assay [33] concerns Burkholderia cepacia SMC 71.
Assay [34] relates to Serratia marcescens W99FI0111.
Assay [35] relates to Stenotrophomonas maltophilia PT4/99.
The subject of assay [36] is Acinetobacter baumannii AB1MG.
Assay [37] deals with Bacillus subtilis CICC 24434.
The test system of assay [38] is Listeria monocytogenes CICC 21533.
Assay [39] concerns Salmonella typhimurium SL1344.
Assay [40] concerns Pasteurella multocida C48-3.
Assay [41] has as its system Salmonella enterica subsp. enterica serovar Choleraesuis C78-1.
The subject of assay [42] is Escherichia coli E44813.
Assay [43] deals with Shigella flexneri CICC 21534.
In assay [44] the test system is Staphylococcus epidermidis LY8.

One may read the MIC as the smallest concentration in the dilution series that meets the test's criterion for growth inhibition. A higher MIC goes with weaker potency. For `CC(C)C[C@H](NC(=O)[C@@H](NC(=O)CNC(=O)[C@H](C)NC(=O)[C@H](CC(C)C)NC(=O)[C@H](CS)NC(=O)[C@H](CCCN=C(N)N)NC(=O)[C@H](C)NC(=O)[C@H](CC(C)C)NC(=O)CN)[C@@H](C)O)C(=O)O` [GLARCLAGTL], the minimal inhibitory concentration (MIC) is 16.4 µM (≈ 16 µg/mL) in assay [1]; 8.21 µM (≈ 8 µg/mL) in [2]; 16.4 µM (≈ 16 µg/mL) in assay [3]; 8.21 µM (≈ 8 µg/mL) in [4]; 16.4 µM (≈ 16 µg/mL) in assay [5]; 65.7 µM (≈ 64 µg/mL) in assay [6]. This compound also registered an MIC in [7] of 8.21 µM (≈ 8 µg/mL).

In the case of `CC[C@H](C)[C@H](NC(=O)[C@H](CCC(N)=O)NC(=O)[C@H](CO)NC(=O)[C@H](C)NC(=O)[C@H](CC(C)C)NC(=O)[C@H](Cc1cnc[nH]1)NC(=O)[C@@H](NC(=O)[C@H](CC(C)C)NC(=O)[C@H](CC(C)C)NC(=O)CNC(=O)[C@H](CCCCN)NC(=O)CNC(=O)[C@H](C)NC(=O)CNC(=O)[C@H](CCCCN)NC(=O)[C@H](CC(C)C)NC(=O)[C@H](CC(C)C)NC(=O)[C@H](CC(=O)O)NC(=O)[C@H](CC(C)C)NC(=O)[C@H](CC(C)C)NC(=O)CN)[C@@H](C)O)C(N)=O` [GLLDLLKGAGKGLLTHLASQI], the MIC in assay [8] was no less than 125 µM; in [9] it was no less than 250 µM; in assay [10], no less than 62.5 µM; in assay [11], 250 µM (≈ 529 µg/mL); in assay [12] it was no less than 125 µM; in assay [13], no less than 250 µM. This compound also came in with an MIC in [14] of no less than 250 µM.

`CC[C@H](C)[C@H](NC(=O)[C@H](CCCN=C(N)N)NC(=O)[C@H](CCC(N)=O)NC(=O)[C@@H](NC(=O)[C@@H](NC(=O)[C@H](CCCN=C(N)N)NC(=O)[C@H](CCCCN)NC(C)=O)[C@@H](C)CC)C(C)C)C(=O)N[C@@H](CCCCN)C(=O)N[C@@H](CC(=O)O)C(=O)N[C@@H](Cc1ccccc1)C(=O)N[C@@H](CC(C)C)C(=O)N[C@@H](CCCN=C(N)N)C(=O)N[C@@H](C)C(=O)NCC(=O)N1CCC[C@H]1C(=O)N[C@@H](CCCN=C(N)N)C(=O)N[C@@H](CCCN=C(N)N)C(=O)N[C@@H](Cc1c[nH]c2ccccc12)C(=O)N[C@@H](Cc1c[nH]c2ccccc12)C(=O)N[C@@H](CCCN=C(N)N)C(=O)N[C@@H](Cc1c[nH]c2ccccc12)C(N)=O` [KRIVQRIKDFLRAGPRRWWRW]: the MIC in [2] is 1.42 µM and 0.708 µM; in [15], 0.708 µM and 1.42 µM; in assay [4], 0.708 µM and 1.42 µM; in [6], 1.42 µM and 0.708 µM.

For the compound `CC[C@H](C)[C@H](NC(=O)[C@H](CCCCN)NC(=O)[C@H](CCCCN)NC(=O)[C@@H](N)CCC(N)=O)C(=O)N[C@@H](CCCN=C(N)N)C(=O)N[C@H](C(=O)N[C@@H](CCCN=C(N)N)C(=O)N[C@@H](CC(C)C)C(=O)N[C@@H](CO)C(=O)N[C@@H](C)C(=O)O)C(C)C` [QKKIRVRLSA], the MIC in assay [16] was 6.68 µM (≈ 8 µg/mL); in [17], 26.7 µM (≈ 32 µg/mL); in [18], no less than 53.4 µM; in assay [19] it was 3.34 µM (≈ 4 µg/mL); in [20] it was 6.68 µM (≈ 8 µg/mL); in [21] it was 13.4 µM (≈ 16 µg/mL). In addition, the minimum inhibitory concentration (MIC) in [2] was 3.34 µM (≈ 4 µg/mL); in assay [22], 6.68 µM (≈ 8 µg/mL); in assay [23], no less than 107 µM; in assay [24], greater than 53.4 µM; in assay [25], 6.68 µM (≈ 8 µg/mL); in [26] it was no less than 107 µM. In addition, the minimal inhibitory concentration (MIC) is 3.34 µM (≈ 4 µg/mL) in [4]; 6.68 µM (≈ 8 µg/mL) in assay [27]; no less than 107 µM in assay [28]; no less than 107 µM in [29]; 3.34 µM (≈ 4 µg/mL) in assay [30]; greater than 107 µM in assay [6]. The minimum inhibitory concentration (MIC) in [31] is no less than 53.4 µM; in assay [32] it was no less than 107 µM; in [33] it was no less than 53.4 µM; in [34], no less than 107 µM; in assay [35], no less than 107 µM; in [36], 13.4 µM (≈ 16 µg/mL).

With `CC[C@H](C)[C@H](NC(=O)[C@@H](NC(=O)[C@H](Cc1ccccc1)NC(=O)[C@H](CCCCN)NC(=O)[C@@H]1CCCN1C(=O)[C@H](CCCCN)NC(=O)[C@H](CCC(N)=O)NC(=O)[C@@H]1CCCN1C(=O)[C@H](CCCN=C(N)N)NC(=O)[C@H](CCCN=C(N)N)NC(=O)[C@@H](NC(=O)[C@H](CCCN=C(N)N)NC(=O)[C@H](Cc1c[nH]c2ccccc12)NC(=O)[C@H](CC(C)C)NC(=O)[C@H](CCCN=C(N)N)NC(=O)[C@H](CC(=O)O)NC(=O)[C@@H](NC(=O)[C@@H](NC(=O)[C@@H](N)CCCN=C(N)N)[C@@H](C)CC)[C@@H](C)CC)C(C)C)C(C)C)C(=O)N[C@H](C(=O)N[C@@H](Cc1c[nH]c2ccccc12)C(=O)N[C@H](C(=O)N[C@@H](CCCN=C(N)N)C(=O)O)C(C)C)C(C)C` [RIIDRLWRVRRPQKPKFVIVWVR], the MIC in assay [37] turned out to be 0.259 µM (≈ 0.78 µg/mL); in [38], 20.7 µM (≈ 62.5 µg/mL); in assay [39], 0.259 µM (≈ 0.78 µg/mL); in [40], 0.259 µM (≈ 0.78 µg/mL); in assay [41], 0.129 µM (≈ 0.39 µg/mL); in assay [42] it was 2.07 µM (≈ 6.25 µg/mL). Besides, the MIC stood at 0.0041 µM (≈ 0.0124 µg/mL) in assay [6], 24.9 µM (≈ 75 µg/mL) in [43] and 4.14 µM (≈ 12.5 µg/mL) in assay [44].
